Holding throughout (experiment): relative viability (nuclei count vs DMSO), 5 days (fraction); higher = more cells survive
Compound in experiment [1]: C=CCn1c(=O)c2cnc(Nc3ccc(N4CCN(C)CC4)cc3)nc2n1-c1cccc(C(C)(C)O)n1 [Adavosertib] + Nc1nc2[nH]cc(CCc3ccc(C(=O)N[C@@H](CCC(=O)O)C(=O)O)cc3)c2c(=O)[nH]1 [Pemetrexed] (partner 0.2 µM)
Summed up: (§1)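 Medians of duplicate plates are given as relative viability. That measure is the nuclei count in treated wells divided by the count in vehicle wells. Counts were taken on 4× images of lung cancer cell lines in 1536-well plates, 5 days after pin-tool dosing the day after seeding with one drug alone or a fixed anchor-drug dose plus five library-drug doses (not always all listed) in √10 steps.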

Compound in experiment [2]: COc1nc(N)nc2c1ncn2[C@@H]1O[C@H](CO)[C@@H](O)[C@@H]1O [Nelarabine] + COc1cccc2cc(-c3nc([C@H]4CC[C@H](C(=O)O)CC4)n4ncnc(N)c34)[nH]c12 [OSI-027] (partner 0.5 µM)
Summed up: as §1

Compound in experiment [3]: COc1nc(N)nc2c1ncn2[C@@H]1O[C@H](CO)[C@@H](O)[C@@H]1O [Nelarabine] + Nc1nc2[nH]cc(CCc3ccc(C(=O)N[C@@H](CCC(=O)O)C(=O)O)cc3)c2c(=O)[nH]1 [Pemetrexed] (partner 0.2 µM)
Summed up: as §1

Compound in experiment [4]: C=CCn1c(=O)c2cnc(Nc3ccc(N4CCN(C)CC4)cc3)nc2n1-c1cccc(C(C)(C)O)n1 [Adavosertib] + Nc1ncn([C@H]2C[C@H](O)[C@@H](CO)O2)c(=O)n1 [Decitabine] (partner 2 µM)
In a few lines: as §1

Compound in experiment [5]: C=CCn1c(=O)c2cnc(Nc3ccc(N4CCN(C)CC4)cc3)nc2n1-c1cccc(C(C)(C)O)n1 [Adavosertib] + Cc1nc(NC(=O)N2CCC[C@H]2C(N)=O)sc1-c1ccnc(C(C)(C)C(F)(F)F)c1 [Alpelisib] (partner 2 µM)
In a few lines: as §1

With EMC-BAC-2, the relative viability in experiment [1] (first compound 0.03162 µM) was found to be 0.399; in experiment [1] (first compound 0.1 µM) it was 0.357; in experiment [1] (first compound 0.3162 µM), 0.334; in experiment [2] (first compound 0.01 µM), 0.393; in experiment [2] (first compound 0.03162 µM), 0.41; in experiment [2] (first compound 0.1 µM), 0.398. The relative viability in experiment [2] (first compound 0.3162 µM) was 0.36; in experiment [2] (first compound 1 µM) it was 0.377; in experiment [3] (first compound 0.01 µM), 0.44; in experiment [3] (first compound 0.03162 µM), 0.456; in experiment [3] (first compound 0.1 µM), 0.502; in experiment [3] (first compound 0.3162 µM), 0.52. The relative viability in experiment [3] (first compound 1 µM) came to 0.508; in experiment [4] (first compound 0.03162 µM), 0.997; in experiment [4] (first compound 0.1 µM), 1.08; in experiment [4] (first compound 0.3162 µM) it was 1.04; in experiment [5] (first compound 0.01 µM) it was 0.736; in experiment [5] (first compound 0.03162 µM) it was 0.737. The relative viability in experiment [5] (first compound 0.1 µM) is 0.722; in experiment [5] (first compound 0.3162 µM), 0.678.

The values are drawn from the supplement of paper PMC10307832.
